Data from US9783586B2, “Inhibitors of the linear ubiquitin chain assembly complex (LUBAC) and related methods” (The United States of America, as represented by the …, priority 2013, dated 2017).
“Also recorded” adds a separate entry of the source. Positions of bridges follow the written chain, without caps; N, C: chain ends. Non-standard residues stand in square brackets, D forms with d. Residues, ends and D or L forms follow the SMILES beside them. No end group written: not given here. S5 = C=CCCC[C@](C)(N)C(=O)O; βAla = NCCC(=O)O

Columns and labels:
Type in all cases: cell-based
RBCK1/RNF31 interaction = molecular target: T1, RBCK1/RNF31 interaction (Homo sapiens, UniProt Q9BYM8); test: RBCK1/RNF31 co-immunoprecipitation (LUBAC complex formation) in co-transfected HEK-293 cells; settings: for Interference with LUBAC function: Example 9, tested as described in Example 7 (present tense)
T1 construct: expressed in transfected cells; host or cells: HEK-293
T1 sequence (Q9BYM8 1-510): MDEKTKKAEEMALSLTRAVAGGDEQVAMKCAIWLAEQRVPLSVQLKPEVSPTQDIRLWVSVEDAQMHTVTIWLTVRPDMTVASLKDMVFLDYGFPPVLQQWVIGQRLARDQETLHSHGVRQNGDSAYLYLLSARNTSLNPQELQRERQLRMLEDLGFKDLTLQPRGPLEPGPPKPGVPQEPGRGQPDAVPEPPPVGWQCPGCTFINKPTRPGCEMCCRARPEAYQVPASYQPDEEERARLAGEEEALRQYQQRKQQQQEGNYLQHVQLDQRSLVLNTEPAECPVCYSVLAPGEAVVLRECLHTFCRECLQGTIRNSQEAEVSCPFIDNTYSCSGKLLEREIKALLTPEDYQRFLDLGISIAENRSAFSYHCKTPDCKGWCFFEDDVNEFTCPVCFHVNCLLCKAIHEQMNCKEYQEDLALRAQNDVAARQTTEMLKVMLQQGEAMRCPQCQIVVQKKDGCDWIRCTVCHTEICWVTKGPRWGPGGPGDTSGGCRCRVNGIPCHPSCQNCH

NF-κB = NF-κB luciferase reporter assay; settings: for NF-κB activity: ABC DLBCL cells, Example 10 (FIG. 8A)
Protocol: A third experiment was done using a different reporter system for NF-κB activity. HBL1 and TMD8 ABC DLBCL lines cell lines were created with an NF-κB transcriptional reporter by transduction with lentiviral particles containing an inducible NF-κB-responsive luciferase reporter construct (SA Biosciences, Valencia, Calif.) and selected with puromycin. Luciferase activity was measured using the DUAL-LUCIFERASE™ Reporter Assay System (Promega) on a Microtiter Plate Luminometer (Dyn-Ex Technologies, Chantilly, Va.). The transduced HBL and TMD8 cell lines were then transfected with constructs that inducibly express control (SC4) or RNF31 shRNAs described above. Expression of shRNAs was induced using doxycyline, and the luciferase reporter activity in shRNF31 expression cells was measured and normalized relative to control (SC4). Cells were also treated with the specific IKKβ inhibitor (MLN120B) as a positive control. Experiments were done in triplicate, and results are shown in FIG. 2C (error bars indicate SEM).
The ability of these peptides to inhibit NF-κB activity in ABC DLBCL was determined using the NF-κB luciferase reporter assay described above. Negative control cells were treated with dimethyl sulfoxide (DMSO), and positive control cells were treated with Bruton's tyrosine kinase (Btk) inhibitor ibrutinib. […] Cells were treated with peptides at concentrations of 5 μM or 20 μM for 2 days. Relative NF-κB-luciferase reporter activity was normalized and measured relative to control (DMSO-treated) cells. The results of triplicate experiments are shown in FIG. 4 (error bars indicate the SEM).

IκBα = test: IκBα-luciferase reporter assay; settings: ABC DLBCL cells, Example 10 (FIG. 8B)
Text: In a second experiment, HBL1 and TMD8 ABC DLBCL lines were engineered to contain an NF-κB-driven luciferase reporter. Vectors expressing an IκBα-luciferase fusion protein were constructed using Photinus luciferase from pGL3 vector (Promega, Madison, Wis.) as the reporter and Renilla luciferase construct from phRL-TK (Promega) was used for normalization. Stable clones were identified that were responsive to […] (see Lam et al, Clin Cancer Res, 11: 28-40 (2005)). After development with the DUAL-GLO luciferase assay system (Promega), the ratio of IκBα-Photinus to Renilla luminescence was normalized to that in untreated or uninduced cultures. The IκBα assay, which relies on the correlation between NF-κB activity and IKKβ kinase activity, was previously described in Lenz et al, Science, 319: 1676-1679 (2008). In brief, IKKβ kinase phosphorylates IκBα, which leads to degradation of IκBα (an inhibitor of NF-κB) and thereby activates NF-κB.
The engineered cells were transfected with control (SC4) or RNF31 shRNAs under the control of a doxycyline promoter as described in Example 2. Expression of shRNA was induced with doxycyline, and relative amounts of NF-κB Luciferase reporter activity was measured and normalized relative to control (SC4) shRNA. As additional controls, the expression of NF-κB Luciferase reporter activity was measured in cells that were not expressing shRNAs and which were either treated with the specific IKKβ inhibitor (“MLM-120B”) or untreated (“No Rx”). Experiments were done in triplicate and the results are shown in FIG. 2B (error bars indicate standard error of the mean (SEM)).

ABC DLBCL cell lines = test: MTS cell viability assay, ABC DLBCL; settings: ABC DLBCL cells, Example 10 (FIG. 8C)
Protocol: ABC and GCB DLBCL cell lines were treated with RNF31 stapled peptides of Table 2 at concentrations of 5 μM or 20 μM for four days. Cell viability was determined using the following MTS assay. Cells were plated in triplicate at a density of 15,000 cells per well in 96-well plates. Cell viability after indicated treatments was assayed by adding 3-(4,5-dimethylthiazol-2-yl)-5-(3-carboxymethoxyphenyl)-2-(4-sulphophenyl)-2H tetrazolium and an electron coupling reagent (phenazine methosulphate from Promega, Madison, Wis.), incubated for 3 hours and measured by the amount of 490 nm absorbance using a 96-well plate reader. The background was subtracted using a media only control. The results of these MTS assays done in triplicate are shown in FIGS. 7A-7D (error bars indicate the SEM), and cell viability is expressed as the fraction of cells remaining after four days treatment, relative to the initial number of cells at the start of treatment (time 0). The results of MTS cell viability assay indicate that amino-terminal cross-linked peptides RNF31-N (SEQ ID NO: 11) and RNF31-NC (SEQ ID NO: 12) were toxic to ABC DLBCL cell lines but had little effect on GCB DLBCL cell lines tested.

CC(=O)NCCC(=O)N[C@@H](CO)C(=O)N[C@@H](CCCNC(=N)N)C(=O)N[C@@]1(C)CCCC=CCCC[C@@](C)(C(=O)N[C@@H](CCC(N)=O)C(=O)N[C@@H](CCCNC(=N)N)C(=O)N[C@@H](CCC(N)=O)C(=O)N[C@@H](CCCNC(=N)N)C(=O)N[C@@H](CC(C)C)C(=O)N[C@@H](CCC(=O)O)C(=O)NCC(=O)N[C@@H](Cc2ccccc2)C(=O)N[C@@H](CCCNC(=N)N)C(=O)N[C@@H](CCC(N)=O)C(=O)N[C@@H](CCCNC(=N)N)C(=O)N[C@@]2(C)CCCC=CCCC[C@@](C)(C(N)=O)NC(=O)[C@H](CO)NC(=O)[C@H](CC(=O)O)NC(=O)[C@H](Cc3c[nH]c4ccccc34)NC2=O)NC(=O)[C@H](CCC(=O)O)NC(=O)[C@H]([C@@H](C)O)NC(=O)[C@H](CC(C)C)NC1=O [RNF31-NC P2G, Ac-βAla Ser Arg Xaa Leu Thr Glu Xaa Gln Arg Gln Arg Leu Glu Gly Phe Arg Gln Arg Xaa Trp Asp Ser Xaa-NH2] (Ac-[βAla]SR[S5]LTE[S5]QRQRLEGFRQR[S5]WDS[S5]-NH2; staple 4-8, 20-24)
Interference with LUBAC function (RBCK1/RNF31 interaction): interfere with LUBAC function

Ac-βAla Ser Arg Ala Leu Thr Glu Leu Gln Arg Gln Arg Leu Glu Pro Phe Arg Gln Arg Xaa Trp Asp Ser Xaa-NH2 (Ac-[βAla]SRALTELQRQRLEPFRQR[S5]WDS[S5]-NH2; staple 20-24; SMILES CC(=O)NCCC(=O)N[C@@H](CO)C(=O)N[C@@H](CCCNC(=N)N)C(=O)N[C@@H](C)C(=O)N[C@@H](CC(C)C)C(=O)N[C@H](C(=O)N[C@@H](CCC(=O)O)C(=O)N[C@@H](CC(C)C)C(=O)N[C@@H](CCC(N)=O)C(=O)N[C@@H](CCCNC(=N)N)C(=O)N[C@@H](CCC(N)=O)C(=O)N[C@@H](CCCNC(=N)N)C(=O)N[C@@H](CC(C)C)C(=O)N[C@@H](CCC(=O)O)C(=O)N1CCC[C@H]1C(=O)N[C@@H](Cc1ccccc1)C(=O)N[C@@H](CCCNC(=N)N)C(=O)N[C@@H](CCC(N)=O)C(=O)N[C@@H](CCCNC(=N)N)C(=O)N[C@@]1(C)CCCC=CCCC[C@@](C)(C(N)=O)NC(=O)[C@H](CO)NC(=O)[C@H](CC(=O)O)NC(=O)[C@H](Cc2c[nH]c3ccccc23)NC1=O)[C@@H](C)O) [RNF31-C]
RBCK1/RNF31 interaction (anti-HA immunoprecipitation, densitometry) (RBCK1/RNF31 interaction; HEK-293 cells, 5 μM or 20 μM, 24 hours, relative to DMSO (FIGS. 5, 6)): little if any effect | Relative NF-κB-luciferase reporter activity (NF-κB; HBL1 ABC DLBCL cells, 5 μM or 20 μM, 2 days, relative to DMSO (FIG. 4)): less of an effect

CC(=O)NCCC(=O)N[C@@H](CO)C(=O)N[C@@H](CCCNC(=N)N)C(=O)N[C@@]1(C)CCCC=CCCC[C@@](C)(C(=O)N[C@@H](CCC(N)=O)C(=O)N[C@@H](CCCNC(=N)N)C(=O)N[C@@H](CCC(N)=O)C(=O)N[C@@H](CCCNC(=N)N)C(=O)N[C@@H](CC(C)C)C(=O)N[C@@H](CCC(=O)O)C(=O)N2CCC[C@H]2C(=O)N[C@@H](Cc2ccccc2)C(=O)N[C@@H](CCCNC(=N)N)C(=O)N[C@@H](CC(C)C)C(=O)N[C@@H](CCCNC(=N)N)C(=O)N[C@@]2(C)CCCC=CCCC[C@@](C)(C(N)=O)NC(=O)[C@H](CO)NC(=O)[C@H](CC(=O)O)NC(=O)[C@H](Cc3c[nH]c4ccccc34)NC2=O)NC(=O)[C@H](CCC(=O)O)NC(=O)[C@H]([C@@H](C)O)NC(=O)[C@H](CC(C)C)NC1=O [RNF31-NC Q2L, Ac-βAla Ser Arg Xaa Leu Thr Glu Xaa Gln Arg Gln Arg Leu Glu Pro Phe Arg Leu Arg Xaa Trp Asp Ser Xaa-NH2] (Ac-[βAla]SR[S5]LTE[S5]QRQRLEPFRLR[S5]WDS[S5]-NH2; staple 4-8, 20-24)
Interference with LUBAC function (RBCK1/RNF31 interaction): interfere with LUBAC function | IκBα activity (IκBα-reporter) (IκBα): decreased IκBα activity; also recorded: greatest activity | Cell viability (MTS) (ABC DLBCL cell lines): decreased cell viability; also recorded: greatest activity | NF-κB activity (NF-κB): inhibited NF-κB activity; also recorded: greatest activity

CC(=O)NCCC(=O)N[C@@H](CO)C(=O)N[C@@H](CCCNC(=N)N)C(=O)N[C@@]1(C)CCCC=CCCC[C@@](C)(C(=O)N[C@@H](CCC(N)=O)C(=O)N[C@@H](CCCNC(=N)N)C(=O)N[C@@H](CCC(N)=O)C(=O)N[C@@H](CCCNC(=N)N)C(=O)N[C@@H](CC(C)C)C(=O)N[C@@H](CCC(=O)O)C(=O)N2CCC[C@H]2C(=O)N[C@@H](Cc2ccccc2)C(=O)N[C@@H](CS)C(=O)N[C@@H](CC(C)C)C(=O)N[C@@H](CCCNC(=N)N)C(=O)N[C@@]2(C)CCCC=CCCC[C@@](C)(C(N)=O)NC(=O)[C@H](CO)NC(=O)[C@H](CC(=O)O)NC(=O)[C@H](Cc3c[nH]c4ccccc34)NC2=O)NC(=O)[C@H](CCC(=O)O)NC(=O)[C@H]([C@@H](C)O)NC(=O)[C@H](CC(C)C)NC1=O [RNF31-NC R2CL, Ac-βAla Ser Arg Xaa Leu Thr Glu Xaa Gln Arg Gln Arg Leu Glu Pro Phe Cys Leu Arg Xaa Trp Asp Ser Xaa-NH2] (Ac-[βAla]SR[S5]LTE[S5]QRQRLEPFCLR[S5]WDS[S5]-NH2; staple 4-8, 20-24)
Interference with LUBAC function (RBCK1/RNF31 interaction): interfere with LUBAC function

SRALTELQRQRLEPFRQRLWDSG [SEQ ID NO:1]
IκBα activity (IκBα-reporter) (IκBα): little or no effect | Cell viability (MTS) (ABC DLBCL cell lines): little or no effect | NF-κB activity (NF-κB): little or no effect

CC(=O)NCCC(=O)N[C@@H](CO)C(=O)N[C@@H](CCCNC(=N)N)C(=O)N[C@@]1(C)CCCC=CCCC[C@@](C)(C(=O)N[C@@H](CCC(N)=O)C(=O)N[C@@H](CCCNC(=N)N)C(=O)N[C@@H](CCC(N)=O)C(=O)N[C@@H](CCCNC(=N)N)C(=O)N[C@@H](CC(C)C)C(=O)N[C@@H](CCC(=O)O)C(=O)N2CCC[C@H]2C(=O)N[C@@H](Cc2ccccc2)C(=O)N[C@@H](CS)C(=O)N[C@@H](CCC(N)=O)C(=O)N[C@@H](CCCNC(=N)N)C(=O)N[C@@]2(C)CCCC=CCCC[C@@](C)(C(N)=O)NC(=O)[C@H](CO)NC(=O)[C@H](CC(=O)O)NC(=O)[C@H](Cc3c[nH]c4ccccc34)NC2=O)NC(=O)[C@H](CCC(=O)O)NC(=O)[C@H]([C@@H](C)O)NC(=O)[C@H](CC(C)C)NC1=O [RNF31-NC R2C, Ac-βAla Ser Arg Xaa Leu Thr Glu Xaa Gln Arg Gln Arg Leu Glu Pro Phe Cys Gln Arg Xaa Trp Asp Ser Xaa-NH2] (Ac-[βAla]SR[S5]LTE[S5]QRQRLEPFCQR[S5]WDS[S5]-NH2; staple 4-8, 20-24)
Interference with LUBAC function (RBCK1/RNF31 interaction): interfere with LUBAC function
